Patent US9326513B2, “Fungicidal compositions” (Syngenta Participations AG, priority 2011, dated 2016)

Experiments:
Format in all cases: in vivo
Conditions in all cases: foliar, compared to untreated control leaf disks, read-out: disease control
[1] = system: Blumeria graminis f. sp. tritici (Erysiphe graminis f. sp. tritici); experiment: Blumeria graminis f. sp. tritici / wheat / leaf disc preventative (powdery mildew on wheat)
Method in brief: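 Wheat leaf segments (cv. Kanzler) on agar were sprayed with formulated compound in water, inoculated with powdery mildew 1 day later, and kept at 20° C, 60% rh (24 h dark, then 12 h light/12 h dark). Percent disease control versus untreated scored 6-8 days after application; tested at 200 ppm.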

[2] = system: Puccinia recondita f. sp. tritici; experiment: Puccinia recondita f. sp. tritici / wheat / leaf disc preventative (brown rust)
Source text: Puccinia recondita f. sp. tritici/Wheat/Leaf Disc Preventative (Brown Rust) Wheat leaf segments cv. Kanzler were placed on agar in multiwell plates (24-well format) and sprayed with the formulated test compound diluted in water. The leaf disks were inoculated with a spore suspension of the fungus 1 day after application.

[3] = system: Puccinia recondita f. sp. tritici; experiment: Puccinia recondita f. sp. tritici / wheat / leaf disc curative (brown rust)
Description: Puccinia recondita f. sp. tritici/Wheat/Leaf Disc Curative (Brown Rust) Wheat leaf segments cv. Kanzler are placed on agar in multiwell plates (24-well format). The leaf segments are inoculated with a spore suspension of the fungus. Plates were stored in darkness at 19° C. and 75% rh. The formulated test compound diluted in water was applied 1 day after inoculation.

Pyrenophora teres = Pyrenophora teres / barley / leaf disc preventative (net blotch)
Source text: Pyrenophora teres/Barley/Leaf Disc Preventative (Net Blotch) Barley leaf segments cv. Hasso were placed on agar in a multiwell plate (24-well format) and sprayed with the formulated test compound diluted in water. The leaf segments were inoculated with a spore suspension of the fungus 2 days after application.

Measured: pest or weed control at 200 ppm

C=CCCCOc1nc(C)c(/N=C/N(C)CC)cc1C [Q.057]
≥ 50%: [1] | [2] | [3] | Pyrenophora teres

CCN(C)/C=N/c1cc(Br)c(OCCCC(O)CCl)nc1C (stereo not shown) [Q.059]
≥ 50%: [1] | [2] | [3] | Pyrenophora teres

CCN(C)/C=N/c1cc(Br)c(OC2Cc3cc(OC)c(OC)cc3C2)nc1C [Q.066]
≥ 50%: [1] | [2] | [3] | Pyrenophora teres

CCN(C)/C=N/c1cc(C2CC2)c(OC2Cc3cc(OC)c(OC)cc3C2)nc1C [Q.069]
≥ 50%: [1] | [2] | [3] | Pyrenophora teres

CCN(C)/C=N/c1cc(Br)c(O[C@H]2C[C@@H]3ON=C(C)[C@@H]3C2)nc1C [Q.070]
≥ 50%: [1] | [2] | [3] | Pyrenophora teres

CCN(C)/C=N/c1cc(Br)c(OC2CCC(=C(Cl)Cl)CC2)nc1C (stereo not shown) [Q.071]
≥ 50%: [1] | [2] | [3] | Pyrenophora teres

CCN(C)/C=N/c1cc(Br)c(OC(C)c2cc(C)no2)nc1C (stereo not shown) [Q.074]
≥ 50%: [1] | [2] | [3] | Pyrenophora teres

CCN(C)/C=N/c1cc(Br)c(OC(C)c2cc(-c3ccccc3)no2)nc1C (stereo not shown) [Q.075]
≥ 50%: [1] | [2] | [3] | Pyrenophora teres

CCN(C)/C=N/c1cc(Br)c(OC(C)(C)c2cc(C)no2)nc1C [Q.076]
≥ 50%: [1] | [2] | [3] | Pyrenophora teres

CCN(C)/C=N/c1cc(Br)c(OC2CCC(c3ccccc3)CC2)nc1C (stereo not shown) [Q.082]
≥ 50%: [1] | [2] | [3] | Pyrenophora teres

CCN(C)/C=N/c1cc(Br)c(OCc2ccccc2)nc1C [Q.095]
≥ 50%: [1] | [2] | [3] | Pyrenophora teres

CCN(C)/C=N/c1cc(Br)c(OCc2ccc(Cl)cc2)nc1C [Q.097]
≥ 50%: [1] | [2] | [3] | Pyrenophora teres

CCN(C)/C=N/c1cc(Br)c(OCCc2ccccc2)nc1C [Q.099]
≥ 50%: [1] | [2] | [3] | Pyrenophora teres

CCN(C)/C=N/c1cc(Br)c(OCCCc2ccccc2)nc1C [Q.100]
≥ 50%: [1] | [2] | [3] | Pyrenophora teres

CCN(C)/C=N/c1cc(Br)c(OCc2cccc(Br)c2)nc1C [Q.101]
≥ 50%: [1] | [2] | [3] | Pyrenophora teres

CCN(C)/C=N/c1cc(Br)c(OC(C)c2ccccc2)nc1C (stereo not shown) [Q.102]
≥ 50%: [1] | [2] | [3] | Pyrenophora teres

CCN(C)/C=N/c1cc(Br)c(OCCCC(C)=C(C)C)nc1C [Q.103]
≥ 50%: [1] | [2] | [3] | Pyrenophora teres

CCN(C)/C=N/c1cc(Br)c(OCc2cc(F)cc(F)c2)nc1C [Q.105]
≥ 50%: [1] | [2] | [3] | Pyrenophora teres

CCN(C)/C=N/c1cc(Br)c(OCc2cccnc2)nc1C [Q.106]
≥ 50%: [1] | [2] | [3] | Pyrenophora teres

CCN(C)/C=N/c1cc(Br)c(OC2CCc3ccccc3C2)nc1C (stereo not shown) [Q.110]
≥ 50%: [1] | [2] | [3] | Pyrenophora teres

CCN(C)/C=N/c1cc(Br)c(OCc2ccc(OC)nc2)nc1C [Q.115]
≥ 50%: [1] | [2] | [3] | Pyrenophora teres

CCN(C)/C=N/c1cc(Br)c(OCCc2cccc(F)c2)nc1C [Q.116]
≥ 50%: [1] | [2] | [3] | Pyrenophora teres

CCN(C)/C=N/c1cc(Br)c(OC(C)c2ccncc2)nc1C (stereo not shown) [Q.117]
≥ 50%: [1] | [2] | [3] | Pyrenophora teres

CCN(C)/C=N/c1cc(Br)c(OC2CCC(Cc3ccccc3)CC2)nc1C (stereo not shown) [Q.119]
≥ 50%: [1] | [2] | [3] | Pyrenophora teres

C=C(C)CCCOc1nc(C)c(/N=C/N(C)CC)cc1Br [Q.120]
≥ 50%: [1] | [2] | [3] | Pyrenophora teres

CCN(C)/C=N/c1cc(Br)c(OCc2ccc(Cc3ccccc3)cc2)nc1C [Q.121]
≥ 50%: [1] | [2] | [3] | Pyrenophora teres

CCN(C)/C=N/c1cc(Br)c(OC2CCC(=C(C)C)CC2)nc1C (stereo not shown) [Q.122]
≥ 50%: [1] | [2] | [3] | Pyrenophora teres

CCN(C)/C=N/c1cc(Br)c(OCc2snc(-c3ccc(F)cc3)c2Cl)nc1C [Q.124]
≥ 50%: [1] | [2] | [3] | Pyrenophora teres

CCN(C)/C=N/c1cc(Br)c(OCCCc2ccc(F)cc2)nc1C [Q.131]
≥ 50%: [1] | [2] | [3] | Pyrenophora teres

C/C=C(\C)CCCOc1nc(C)c(/N=C/N(C)CC)cc1Br [Q.133]
≥ 50%: [1] | [2] | [3] | Pyrenophora teres

CCN(C)/C=N/c1cc(Br)c(OCc2ccc(C(F)(F)F)nc2)nc1C [Q.136]
≥ 50%: [1] | [2] | [3] | Pyrenophora teres

CCN(C)/C=N/c1cc(Br)c(OC2CCC(C)CC2)nc1C (stereo not shown) [Q.141]
≥ 50%: [1] | [2] | [3] | Pyrenophora teres

CCN(C)/C=N/c1cc(Br)c(OCc2ccns2)nc1C [Q.143]
≥ 50%: [1] | [2] | [3] | Pyrenophora teres

CCN(C)/C=N/c1cc(Br)c(OC2Cc3ccc(OCc4ccns4)cc3C2)nc1C (stereo not shown) [Q.144]
≥ 50%: [1] | [2] | [3] | Pyrenophora teres
